# Laboratory results from patent publication US20240082313A1, “PHARMACEUTICAL COMPOSITIONS AND THEIR METHODS OF USE” (The Trustees of Indiana University, priority 2021, published 2024).
# “Also recorded” adds a separate entry of the source.
# Tests used:
# 4T1.2 cells [1] = assay: Western blot analysis; type: cell-based, mouse; settings: 4T1.2 cells, OAC2 treatment
# Protocol: Western blot analysis. Cultured cells were lysed in a radio-immunoprecipitation assay (RIPA) buffer and proteins were fractionated by 10-15% SDS gels and electro-transferred to polyvinylidene difluoride (PVDF) transfer membranes (Millipore, Billerica, MA, USA). The membrane was incubated overnight with primary antibodies and then with secondary antibodies conjugated with horseradish peroxidase (Cell Signaling, Danvers, MA, USA). Antibodies against c-Myc, Oct4, Sox2, Klf4, Lrp5, Runx2, Snail, TGFβ, Eno1, Eef2, vinculin (Cell Signaling, Danvers, MA, USA), MMP9, NFATc1, cathepsin K (Santa Cruz, Dallas, TX, USA), TRAIL (Novus, Centennial, CO, USA), p53 (Invitrogen, Carlsbad, CA, USA), Hsp90ab1 (Abcam, Cambridge, UK), Kdm3a (Thermo-Fisher Scientific, Waltham, MA, USA) and β-actin as a control (Sigma, St. Louis, MO, USA) were employed. The level of proteins was determined using a SUPERSIGNAL™ west femto maximum sensitivity substrate (Thermo-Fisher Scientific, Waltham, MA, USA), and a luminescent image analyzer (LAS-3000, Fuji Film, Tokyo, Japan) was used to quantify signal intensities.
# 4T1.2 cells [2] = assay: Mouse model of a mammary tumor; type: in vivo; settings: BALB/c mice, daily intraperitoneal injection of 10 mg/kg OAC2
# 4T1.2 cells [3] = assay: MTT-based viability; type: cell-based, mouse; settings: 1 to 5 μM OAC2
# EO771 cells [4] = assay: In vivo extravasation assay; design: species or system mouse; settings: EO771 cells via tail vein
# Source text: (§1) Animal models. The experimental procedures using animals were approved by the Indiana University Animal Care and Use Committee and were complied with the Guiding Principles in the Care and Use of Animals endorsed by the American Physiological Society. Mice were housed five per cage and provided with mouse chow and water ad libitum. In the mouse model of mammary tumors, C57BL/6 female mice (˜8 weeks, Envigo RMS, Inc., Indianapolis, IN, USA) were randomly assigned into five groups (14 mice per group). The placebo groups received cells transfected with a negative control vector, and the negative control group received cells transfected with β-catenin overexpression vector. The three treatment groups received β-catenin overexpressing iTS CM, BML-treated cells, and BML-treated iTS CM. Each group received a subcutaneous injection of EO771 cells (3.0×10^5 cells in 50 μl PBS) to the mammary fat pad. For tibial osteolysis, C57BL/6 female mice (8 mice per group) received an intra-tibial injection of EO771 cells (2.5×10^5 cells in 20 μl PBS) to the right tibia. The treatment group received iTS cell-derived CM as an injection into the intraperitoneal cavity. The animals were sacrificed on day 18, and the weight of each tumor was measured. To evaluate the effects of CMs for tumor invasion, an in vivo extravasation assay was conducted. […]
# EO771 cells [5] = assay: Mouse model of mammary tumors; type: in vivo; settings: EO771 cells in mammary fat pad
# Source text: as §1
# [6] = system: human breast cancer and prostate cancer tissues; assay: Ex vivo tissue assay; type: cell-based; settings: breast (ER-positive and -negative) and prostate cancer tissue
# Protocol: Ex vivo tissue assay. The usage of human breast cancer and prostate cancer tissues was approved by the Indiana University Institutional Review Board. Two human breast cancer tissues (˜1 g each; estrogen receptor-positive and -negative) and prostate cancer tissue (˜1 g), received from Simon Cancer Center Tissue Procurement Core, were manually fragmented with a scalpel into small pieces (0.5˜0.8 mm in length). These pieces were grown in DMEM with 10% fetal bovine serum and antibiotics for a day. iTS cell-derived conditioned medium was then added for three additional days, and a change in the fragment size was determined. BML284 (10 μM) or β-catenin (40 ng/μ1) was applied to tissue fragments and CM was prepared as described above.
Compound,Oct4 level (4T1.2 cells [1]),"size of mammary tumors / progression of tumors, direct administration (4T1.2 cells [2])","MTT-based viability / proliferation of tumor cells, direct application (4T1.2 cells [3])",number of tumor cells in the lung (EO771 cells [4]),tumor weight (EO771 cells [5]),size of cancer tissue fragments [6]
O=C(Nc1ccc2[nH]ccc2c1)c1ccccc1 [OAC2],Elevation,did not alter; also recorded: No detectable change,did not alter; also recorded: No detectable change,,,
COc1cccc(-c2cc(NCc3ccc4c(c3)OCO4)nc(N)n2)c1 [BML284],,,,Increase,Increase,modestly increased
